From patent publication US11207310B2 (PRILENIA NEUROTHERAPEUTICS LTD., priority 2016, dated 2021)
Read-outs that look alike come from different tables or passages of the source.

Columns and labels:
patients with HD [1] = conditions: for Δ to placebo: Total Maximal Chorea (TMC): HD1 patients; for Change from baseline in UHDRS TMS Chorea, Δ to placebo / Change from baseline in UHDRS TMS Chorea, Wk 26 Δ to placebo: Week 26; for Change from baseline in UHDRS TMS Chorea, Δ to placebo: ALL; for Change from baseline in UHDRS TMS Chorea, Wk 26 Δ to placebo: Stage 1 BL TFC 11-13
Description: In the UHDRS, maximal chorea was scored from 0 (absent) to 4 (marked/prolonged) on each of the following items: face, mouth, trunk, right upper extremity, left upper extremity, right lower extremity, and left lower extremity. Maximal chorea is the sum of all scores.

patients with HD [2] = system: patients with HD;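 on Change from baseline in UHDRS TFC Finances, Δ to Placebo: finances item of the UHDRS Total Functional Capacity scale, rated 0 (unable to manage finances) to 3 (normal, no assistance needed), higher meaning better function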;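 on UHDRS TFC Finances, change from baseline, Δ to placebo: finances item of the UHDRS Total Functional Capacity scale, rated 0 (unable to manage finances) to 3 (normal, no assistance needed), higher meaning better function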;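 on Δ to placebo: UHDRS TFC Finances score, change from baseline: finances item of the UHDRS Total Functional Capacity scale, rated 0 (unable to manage finances) to 3 (normal, no assistance needed), higher meaning better function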
Description: Finance is scored as follows: a patient unable to manage finances=0, a patient requiring major assistance=1, a patient requiring minor assistance=2, a patient a patient requiring no assistance (normal)=3.
The TFC scale of the UHDRS is a standardized scale used to assess 5 functional domains associated with disability shown below (occupation, finances, domestic chores (e.g. laundry, washing dishes), activities of daily living, and care level). The TFC score has a range of 0-13 and is a well-established endpoint for trials aiming disease progression. […] The floor and ceiling effects make TFC scores more sensitive to change in early stage HD than in late stage HD.
Finances: 0=unable, 1=major assistance, 2=slight assistance, 3=normal.

For `CCCN1CCC(c2cccc(S(C)(=O)=O)c2)CC1` [pridopidine, 4-[3-(methylsulfonyl)phenyl]-1-propyl-piperidine], the “Δ to placebo: Total Maximal Chorea (TMC)” value (patients with HD [1]; 45 mg bid, week 26) was −1.4, the “Δ to placebo: Total Maximal Chorea (TMC)” value (patients with HD [1]; 45 mg bid, week 52) was −0.93 and the “Change from baseline in UHDRS TMS Chorea, Δ to placebo” value (patients with HD [1]; 45 mg bid) was 0.92. The “Change from baseline in UHDRS TMS Chorea, Wk 26 Δ to placebo” value (shortened to “Change from baseline … Wk 26 Δ to placebo”) (patients with HD [1]; 45 mg bid) was −1.4, the “Δ to placebo: Total Maximal Chorea (TMC)” value (patients with HD [1]; 67.5 mg bid, week 26) was −2.07 and the “Δ to placebo: Total Maximal Chorea (TMC)” value (patients with HD [1]; 67.5 mg bid, week 52) was −0.13. The “Change from baseline in UHDRS TMS Chorea, Δ to placebo” value (patients with HD [1]; 67.5 mg bid) was 0.81, the “Change from baseline … Wk 26 Δ to placebo” value (patients with HD [1]; 67.5 mg bid) was −2.07 and the “Δ to placebo: Total Maximal Chorea (TMC)” value (patients with HD [1]; 90 mg bid, week 26) was −2.52. The “Δ to placebo: Total Maximal Chorea (TMC)” value (patients with HD [1]; 90 mg bid, week 52) was −2.43, the “Change from baseline in UHDRS TMS Chorea, Δ to placebo” value (patients with HD [1]; 90 mg bid) was 0.36 and the “Change from baseline … Wk 26 Δ to placebo” value (patients with HD [1]; 90 mg bid) was −2.52. The “Δ to placebo: Total Maximal Chorea (TMC)” value (patients with HD [1]; 112.5 mg bid, week 26) was −1.08, the “Δ to placebo: Total Maximal Chorea (TMC)” value (patients with HD [1]; 112.5 mg bid, week 52) was 0.88 and the “Change from baseline in UHDRS TMS Chorea, Δ to placebo” value (patients with HD [1]; 112.5 mg bid) was 1.05. For the same compound, the “Change from baseline … Wk 26 Δ to placebo” value (patients with HD [1]; 112.5 mg bid) was −1.08, the “Δ to placebo: UHDRS TFC Finances score, change from baseline” value (patients with HD [2]; 45 mg bid, TMS 1st 2Qs, week 26) was 0.33 and the “Δ to placebo: UHDRS TFC Finances score, change from baseline” value (patients with HD [2]; 45 mg bid, TMS 1st 2Qs, week 52) was 0.29. The “Δ to placebo: UHDRS TFC Finances score, change from baseline” value (patients with HD [2]; 45 mg bid, TMS 1st 3Qs, week 26) was 0.12, the “Δ to placebo: UHDRS TFC Finances score, change from baseline” value (patients with HD [2]; 45 mg bid, TMS 1st 3Qs, week 52) was 0.39 and the “Δ to placebo: UHDRS TFC Finances score, change from baseline” value (patients with HD [2]; 45 mg bid, TMS 1st Q, week 26) was 0.38. The “Δ to placebo: UHDRS TFC Finances score, change from baseline” value (patients with HD [2]; 45 mg bid, TMS 1st Q, week 52) was 0.43, the “Change from baseline in UHDRS TFC Finances, Δ to Placebo” value (patients with HD [2]; 45 mg bid, Week 26, ALL) was 0.1 and the “UHDRS TFC Finances, change from baseline, Δ to placebo” value (patients with HD [2]; 45 mg bid, Week 26, BL TFC<7, p value 0.3508) was −0.19. For the same compound, the “UHDRS TFC Finances, change from baseline, Δ to placebo” value (patients with HD [2]; 45 mg bid, Week 26, BL TFC≥7, p value 0.0853) was 0.2, the “Change from baseline in UHDRS TFC Finances, Δ to Placebo” value (patients with HD [2]; 45 mg bid, Week 26, Stage 1 BL TFC 11-13) was 0.25 and the “UHDRS TFC Finances, change from baseline, Δ to placebo” value (patients with HD [2]; 45 mg bid, Week 52, BL TFC<7, p value 0.2468) was 0.29. The “UHDRS TFC Finances, change from baseline, Δ to placebo” value (patients with HD [2]; 45 mg bid, Week 52, BL TFC≥7, p value 0.0171) was 0.35, the “Change from baseline in UHDRS TFC Finances, Δ to Placebo” value (patients with HD [2]; 45 mg bid, Week 52, Stage 2 BL TFC 7-10) was 0.39 and the “Change from baseline in UHDRS TFC Finances, Δ to Placebo” value (patients with HD [2]; 45 mg bid, Week 52, no subgroup in heading (N 75)) was 0.31. For the same compound, the “Δ to placebo: UHDRS TFC Finances score, change from baseline” value (patients with HD [2]; 67.5 mg bid, TMS 1st 2Qs, week 26) was 0.04, the “Δ to placebo: UHDRS TFC Finances score, change from baseline” value (patients with HD [2]; 67.5 mg bid, TMS 1st 2Qs, week 52) was 0.15 and the “Δ to placebo: UHDRS TFC Finances score, change from baseline” value (patients with HD [2]; 67.5 mg bid, TMS 1st 3Qs, week 26) was 0.03. The “Δ to placebo: UHDRS TFC Finances score, change from baseline” value (patients with HD [2]; 67.5 mg bid, TMS 1st 3Qs, week 52) was 0.01, the “Δ to placebo: UHDRS TFC Finances score, change from baseline” value (patients with HD [2]; 67.5 mg bid, TMS 1st Q, week 26) was 0.27 and the “Δ to placebo: UHDRS TFC Finances score, change from baseline” value (patients with HD [2]; 67.5 mg bid, TMS 1st Q, week 52) was 0.25. For the same compound, the “Change from baseline in UHDRS TFC Finances, Δ to Placebo” value (patients with HD [2]; 67.5 mg bid, Week 26, ALL) was 0.05, the “UHDRS TFC Finances, change from baseline, Δ to placebo” value (patients with HD [2]; 67.5 mg bid, Week 26, BL TFC<7, p value 0.5934) was −0.1 and the “UHDRS TFC Finances, change from baseline, Δ to placebo” value (patients with HD [2]; 67.5 mg bid, Week 26, BL TFC≥7, p value 0.1865) was 0.16. The “Change from baseline in UHDRS TFC Finances, Δ to Placebo” value (patients with HD [2]; 67.5 mg bid, Week 26, Stage 1 BL TFC 11-13) was 0.31, the “UHDRS TFC Finances, change from baseline, Δ to placebo” value (patients with HD [2]; 67.5 mg bid, Week 52, BL TFC<7, p value 0.7631) was 0.07 and the “UHDRS TFC Finances, change from baseline, Δ to placebo” value (patients with HD [2]; 67.5 mg bid, Week 52, BL TFC≥7, p value 0.6373) was 0.07. The “Change from baseline in UHDRS TFC Finances, Δ to Placebo” value (patients with HD [2]; 67.5 mg bid, Week 52, Stage 2 BL TFC 7-10) was 0.23, the “Change from baseline in UHDRS TFC Finances, Δ to Placebo” value (patients with HD [2]; 67.5 mg bid, Week 52, no subgroup in heading (N 79)) was 0.05 and the “Δ to placebo: UHDRS TFC Finances score, change from baseline” value (patients with HD [2]; 90 mg bid, TMS 1st 2Qs, week 26) was 0.14.
